In patent US20090270394A1, “CYCLYLAMINE DERIVATIVES AS CALCIUM CHANNEL BLOCKERS” (priority 2008, published 2009):

Biological target: T1, Human Cav2.2 channels (Homo sapiens, UniProt Q00975)
T1 construct: expressed in transfected cells
Test: Fluorescent assay for Cav2.2 channels using potassium depolarization to initiate channel opening
Type: cell-based
Settings: for inhibition at 10 µM: 10 μM compound, read-out: Cav 2.2 Activity % Inh at 10 μM; for inhibition at 30 µM: 30 μM compound, read-out: Cav 2.2 Activity % Inh at 30 μM; for IC50: 30 mM K (block of open and inactivated channels), read-out: Cav 2.2 Activity IC50 at 30 mM K
How it was run: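 HEK293 cells stably expressing human Cav2.2 with alpha2-delta and beta subunits plus Kir2.3, dye-loaded, then held 30 min at 25° C. in 4, 12, 25 or 30 mM K+ pre-polarization buffer with compound.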

T1 sequence (Q00975 whole entry): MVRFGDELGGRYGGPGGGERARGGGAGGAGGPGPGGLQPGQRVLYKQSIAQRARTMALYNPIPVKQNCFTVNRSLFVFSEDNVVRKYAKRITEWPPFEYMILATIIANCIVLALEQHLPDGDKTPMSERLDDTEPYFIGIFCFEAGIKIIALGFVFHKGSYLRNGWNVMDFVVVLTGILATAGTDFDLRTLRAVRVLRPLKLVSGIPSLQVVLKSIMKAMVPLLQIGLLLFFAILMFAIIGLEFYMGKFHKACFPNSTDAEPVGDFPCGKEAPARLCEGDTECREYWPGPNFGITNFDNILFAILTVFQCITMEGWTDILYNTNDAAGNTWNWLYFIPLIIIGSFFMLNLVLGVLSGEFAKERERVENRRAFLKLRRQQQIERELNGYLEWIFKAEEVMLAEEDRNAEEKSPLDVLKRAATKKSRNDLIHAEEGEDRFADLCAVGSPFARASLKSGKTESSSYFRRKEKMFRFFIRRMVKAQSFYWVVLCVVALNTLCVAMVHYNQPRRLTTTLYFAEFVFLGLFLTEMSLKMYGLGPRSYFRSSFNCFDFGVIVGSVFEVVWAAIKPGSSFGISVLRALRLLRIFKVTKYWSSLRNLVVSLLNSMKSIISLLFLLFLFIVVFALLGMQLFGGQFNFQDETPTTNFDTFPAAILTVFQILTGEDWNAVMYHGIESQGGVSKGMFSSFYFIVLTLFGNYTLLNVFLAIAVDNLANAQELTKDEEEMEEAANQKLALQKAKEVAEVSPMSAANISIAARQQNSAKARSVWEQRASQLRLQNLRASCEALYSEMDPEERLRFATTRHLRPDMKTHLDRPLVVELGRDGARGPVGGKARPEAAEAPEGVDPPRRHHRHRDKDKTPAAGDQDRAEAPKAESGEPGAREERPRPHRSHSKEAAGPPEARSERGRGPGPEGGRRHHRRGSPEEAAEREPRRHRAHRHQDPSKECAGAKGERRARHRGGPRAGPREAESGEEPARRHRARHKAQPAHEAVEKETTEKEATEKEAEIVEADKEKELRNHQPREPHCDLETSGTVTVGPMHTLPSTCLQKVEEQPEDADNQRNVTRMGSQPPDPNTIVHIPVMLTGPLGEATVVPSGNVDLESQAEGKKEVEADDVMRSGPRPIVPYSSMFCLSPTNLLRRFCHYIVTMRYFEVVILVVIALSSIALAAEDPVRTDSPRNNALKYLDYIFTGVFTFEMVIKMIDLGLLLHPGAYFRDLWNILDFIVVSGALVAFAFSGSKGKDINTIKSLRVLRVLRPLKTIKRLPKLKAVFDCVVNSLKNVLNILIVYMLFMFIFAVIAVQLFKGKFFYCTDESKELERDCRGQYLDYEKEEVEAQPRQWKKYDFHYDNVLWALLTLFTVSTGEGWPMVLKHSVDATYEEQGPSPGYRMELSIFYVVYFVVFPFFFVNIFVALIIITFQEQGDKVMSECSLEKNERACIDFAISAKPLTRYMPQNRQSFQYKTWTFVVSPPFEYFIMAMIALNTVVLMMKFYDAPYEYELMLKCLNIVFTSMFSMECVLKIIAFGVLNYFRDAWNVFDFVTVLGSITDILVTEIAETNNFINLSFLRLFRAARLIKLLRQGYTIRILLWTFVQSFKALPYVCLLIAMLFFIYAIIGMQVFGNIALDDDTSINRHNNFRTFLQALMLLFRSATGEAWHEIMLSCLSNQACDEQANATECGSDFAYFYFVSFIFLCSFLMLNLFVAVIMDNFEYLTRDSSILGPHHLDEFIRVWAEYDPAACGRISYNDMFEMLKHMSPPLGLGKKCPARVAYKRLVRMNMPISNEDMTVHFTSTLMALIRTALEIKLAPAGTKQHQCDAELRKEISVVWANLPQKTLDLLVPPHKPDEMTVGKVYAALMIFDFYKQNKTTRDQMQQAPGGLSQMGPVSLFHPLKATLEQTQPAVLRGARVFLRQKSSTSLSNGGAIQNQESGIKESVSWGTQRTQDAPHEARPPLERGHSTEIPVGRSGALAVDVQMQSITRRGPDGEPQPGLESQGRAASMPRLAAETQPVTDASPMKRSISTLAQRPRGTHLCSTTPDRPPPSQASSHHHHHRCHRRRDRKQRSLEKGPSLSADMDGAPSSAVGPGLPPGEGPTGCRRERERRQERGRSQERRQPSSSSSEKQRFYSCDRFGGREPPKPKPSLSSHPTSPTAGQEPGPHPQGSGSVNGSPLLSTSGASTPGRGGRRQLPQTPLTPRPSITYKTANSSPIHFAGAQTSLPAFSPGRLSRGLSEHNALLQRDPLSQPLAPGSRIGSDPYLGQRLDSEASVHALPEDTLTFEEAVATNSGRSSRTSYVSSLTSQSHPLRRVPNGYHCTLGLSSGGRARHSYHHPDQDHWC
T1 sequence (P54289 25-1103 partner): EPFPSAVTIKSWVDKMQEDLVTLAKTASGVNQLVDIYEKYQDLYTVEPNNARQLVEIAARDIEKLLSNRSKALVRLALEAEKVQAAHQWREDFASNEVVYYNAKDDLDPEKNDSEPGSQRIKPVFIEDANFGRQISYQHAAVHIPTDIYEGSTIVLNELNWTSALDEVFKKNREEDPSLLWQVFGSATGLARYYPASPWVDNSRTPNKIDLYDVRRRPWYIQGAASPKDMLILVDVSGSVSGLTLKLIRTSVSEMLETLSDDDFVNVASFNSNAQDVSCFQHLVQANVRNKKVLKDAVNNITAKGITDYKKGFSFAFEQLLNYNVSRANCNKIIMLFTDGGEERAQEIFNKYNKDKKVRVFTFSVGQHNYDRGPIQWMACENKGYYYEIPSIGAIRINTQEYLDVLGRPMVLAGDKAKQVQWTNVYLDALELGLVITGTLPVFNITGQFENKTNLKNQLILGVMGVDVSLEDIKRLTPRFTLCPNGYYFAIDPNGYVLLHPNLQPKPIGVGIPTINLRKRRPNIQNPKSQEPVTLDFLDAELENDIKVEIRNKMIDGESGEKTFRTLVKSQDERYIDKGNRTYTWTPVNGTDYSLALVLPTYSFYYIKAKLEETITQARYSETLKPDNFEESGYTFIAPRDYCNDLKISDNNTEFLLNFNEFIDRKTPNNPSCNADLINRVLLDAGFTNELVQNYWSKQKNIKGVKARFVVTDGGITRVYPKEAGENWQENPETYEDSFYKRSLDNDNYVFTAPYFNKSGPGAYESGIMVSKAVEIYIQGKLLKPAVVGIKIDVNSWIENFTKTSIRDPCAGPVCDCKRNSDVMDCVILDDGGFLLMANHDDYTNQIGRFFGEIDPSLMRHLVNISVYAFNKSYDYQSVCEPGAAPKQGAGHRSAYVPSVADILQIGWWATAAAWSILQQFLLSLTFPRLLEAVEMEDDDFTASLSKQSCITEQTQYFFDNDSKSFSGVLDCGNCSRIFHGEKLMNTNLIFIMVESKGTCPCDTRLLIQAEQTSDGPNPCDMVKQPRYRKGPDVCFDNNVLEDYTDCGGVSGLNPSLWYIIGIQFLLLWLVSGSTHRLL
T1 sequence (P54284 whole entry partner): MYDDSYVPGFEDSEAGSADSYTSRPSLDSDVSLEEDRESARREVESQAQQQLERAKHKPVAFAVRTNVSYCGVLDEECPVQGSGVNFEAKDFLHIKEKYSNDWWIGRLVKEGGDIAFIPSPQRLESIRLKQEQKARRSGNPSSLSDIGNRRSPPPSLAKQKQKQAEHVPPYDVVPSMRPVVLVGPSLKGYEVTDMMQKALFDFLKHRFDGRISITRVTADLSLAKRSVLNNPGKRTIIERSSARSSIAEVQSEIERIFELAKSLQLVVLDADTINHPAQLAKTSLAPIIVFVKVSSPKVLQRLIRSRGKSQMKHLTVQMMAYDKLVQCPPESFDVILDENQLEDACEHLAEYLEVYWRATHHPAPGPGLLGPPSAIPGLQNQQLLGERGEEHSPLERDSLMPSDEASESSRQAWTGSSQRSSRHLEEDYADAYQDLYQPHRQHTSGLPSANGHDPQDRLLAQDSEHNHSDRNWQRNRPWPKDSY

SMILES | inhibition at 10 µM | inhibition at 30 µM | IC50
COc1c(C(C)(C)C)cc(CNC2(C(=O)NCc3cccc(C(F)(F)F)c3)CCCCC2)cc1C(C)(C)C [Compound 71, 1-(3,5-di-tert-butyl-4-methoxybenzylamino)-N-(3-(trifluoromethyl)benzyl)cyclohexanecarboxamide] | 77.3% | 81.1% | 477 nM
CC(C)(C)c1cc(NC(=O)C2(NCc3ccc(F)cc3F)CCCCC2)cc(C(C)(C)C)c1 [Compound 42, N-(3,5-di-tert-butylphenyl)-1-(2,4-difluorobenzylamino)cyclohexanecarboxamide] | 70.6% | 80.2% | 
CC(C)(C)c1cc(C(=O)NC2(C(=O)NCc3cccc(S(C)(=O)=O)c3)CC2)cc(C(C)(C)C)c1O [Compound 16, 3,5-di-tert-butyl-4-hydroxy-N-(1-(3-(methylsulfonyl)benzylcarbamoyl)cyclopropyl)benzamide] | 89.3% | 93% | 
CC(C)(C)OC(=O)N1CCC(NC(=O)c2cc(C(C)(C)C)nc(C(C)(C)C)c2)(C(=O)O)CC1 [Compound 58, 1-(tert-butoxycarbonyl)-4-(2,6-di-tert-butylisonicotinamido)piperidine-4-carboxylic acid] | 37.6% | 77.9% | 
COc1c(C(C)(C)C)cc(C(=O)NC2(C(=O)NCc3ccc(N(C)C)cc3)CCCCC2)cc1C(C)(C)C [Compound 84, 3,5-di-tert-butyl-N-(1-(4-(dimethylamino)benzylcarbamoyl)cyclohexyl)-4-methoxybenzamide] | 25.6% | 53.5% | 
CNC(=O)C1(NC(=O)c2cc(C(C)(C)C)cc(C(C)(C)C)c2)CCCCC1 [Compound 35, 3,5-di-tert-butyl-N-(1-(methylcarbamoyl)cyclohexyl)benzamide] | 92.5% | 98.6% | 1260 nM
Cc1cc(CNC(=O)C2(NC(=O)c3cc(C(C)(C)C)nc(C(C)(C)C)c3)CC2)no1 [Compound 9, 2,6-di-tert-butyl-N-(1-((5-methylisoxazol-3-yl)methylcarbamoyl)cyclopropyl)isonicotinamide] | 45.7% | 53.4% | 
CC(C)(C#N)c1cccc(C(=O)NC2(C(=O)NCc3ccccc3)CCCCC2)c1 [Compound 123, N-(1-(benzylcarbamoyl)cyclohexyl)-3-(2-cyanopropan-2-yl)benzamide] | 53.5% | 27.3% | 
CC(C)(C)c1cc(C(=O)NC2(C(=O)NCc3ccccc3)CCNCC2)cc(C(C)(C)C)n1 [Compound 64, N-(4-(benzylcarbamoyl)piperidin-4-yl)-2,6-di-tert-butylisonicotinamide] | 69.5% | 104% | 
CC(C)(C)c1cc(C(=O)NC2(C(=O)NCc3ccc(CN4CCOCC4)cc3)CCOCC2)cc(C(C)(C)C)n1 [Compound 24, 2,6-di-tert-butyl-N-(4-(4-(morpholinomethyl)benzylcarbamoyl)tetrahydro-2H-pyran-4-yl)isonicotinamide] | 79.2% |  | 767 nM
CC(C)(C)c1cc(C(=O)NC2(C(=O)N3CCCC3)CCCC2)cc(C(C)(C)C)n1 [Compound 92, 2,6-di-tert-butyl-N-(1-(pyrrolidine-1-carbonyl)cyclopentyl)isonicotinamide] | 89.5% | 92.2% | 225 nM
COc1ccc(C(=O)NC2(C(=O)NCc3cccc(C(F)(F)F)c3)CCCCC2)cc1C(C)(C)C#N [Compound 118, 3-(2-cyanopropan-2-yl)-4-methoxy-N-(1-(3-(trifluoromethyl)benzylcarbamoyl)cyclohexyl)benzamide] | 75.4% | 77.6% | 388 nM
CN1CCN(Cc2ccc(CNC(=O)C3(NC(=O)c4cc(C(C)(C)C)nc(C(C)(C)C)c4)CCOCC3)cc2)CC1 [Compound 27, 2,6-di-tert-butyl-N-(4-(4-((4-methylpiperazin-1-yl)methyl)benzylcarbamoyl)tetrahydro-2H-pyran-4-yl)isonicotinamide] | 102% |  | 1040 nM
CC(C)(C)c1cc(C(=O)NC2(C(=O)Nc3cccc(C(F)(F)F)c3)CCOCC2)ccn1 [Compound 120, 2-tert-butyl-N-(4-(3-(trifluoromethyl)phenylcarbamoyl)tetrahydro-2H-pyran-4-yl)isonicotinamide] | 61.2% |  | 
CC(C)(C)c1cc(C(=O)NC2(C(=O)NCc3ccc(NS(C)(=O)=O)cc3)CC2)cc(C(C)(C)C)c1O [Compound 117, 3,5-di-tert-butyl-4-hydroxy-N-(1-(4-(methylsulfonamido)benzylcarbamoyl)cyclopropyl)benzamide] | 74.2% | 101% | 1090 nM
CN(C)Cc1ccc(CNC(=O)C2(NC(=O)c3cc(C(C)(C)C)nc(C(C)(C)C)c3)CCOCC2)cc1 [Compound 23, 2,6-di-tert-butyl-N-(4-(4-((dimethylamino)methyl)benzylcarbamoyl)tetrahydro-2H-pyran-4-yl)isonicotinamide] | 87.4% |  | 
Cc1cnc(CNC(=O)C2(NC(=O)c3cc(C(C)(C)C)c(O)c(C(C)(C)C)c3)CC2)cn1 [Compound 3, 3,5-di-tert-butyl-4-hydroxy-N-(1-((5-methylpyrazin-2-yl)methylcarbamoyl)cyclopropyl)benzamide] | 89.8% | 98.8% | 1620 nM
CC(C)(C#N)c1cc(C(=O)NC2(C(=O)NCc3cccc(C(F)(F)F)c3)CCCCC2)cc(C(C)(C)C#N)c1 [Compound 40, 3,5-bis(2-cyanopropan-2-yl)-N-(1-(3-(trifluoromethyl)benzylcarbamoyl)cyclohexyl)benzamide] | 80% | 77.6% | 367 nM

Next, values leading:

inhibition at 10 µM | inhibition at 30 µM | IC50 | SMILES
95.2% | 97.7% | 124 nM | COc1c(C(C)(C)C)cc(CNC(=O)C2(NC(=O)c3cccc(C(F)(F)F)c3)CCCCC2)cc1C(C)(C)C [Compound 73, N-(1-(3,5-di-tert-butyl-4-methoxybenzylcarbamoyl)cyclohexyl)-3-(trifluoromethyl)benzamide]
99.3% | 102% | 128 nM | CN(C)c1ccc(CNC(=O)C2(NC(=O)c3cc(C(C)(C)C)c(O)c(C(C)(C)C)c3)CCCCC2)cc1 [Compound 7, 3,5-di-tert-butyl-N-(1-(4-(dimethylamino)benzylcarbamoyl)cyclohexyl)-4-hydroxybenzamide]
95.3% | 96.1% | 148 nM | Cc1cnc(CNC(=O)C2(NC(=O)c3cc(C(C)(C)C)nc(C(C)(C)C)c3)CCCC2)cn1 [Compound 91, 2,6-di-tert-butyl-N-(1-((5-methylpyrazin-2-yl)methylcarbamoyl)cyclopentyl)isonicotinamide]
95.7% | 101% | 184 nM | CC(C)(C)c1cc(C(=O)NC2(C(=O)NCc3nccs3)CC2)cc(C(C)(C)C)n1 [Compound 10, 2,6-di-tert-butyl-N-(1-(thiazol-2-ylmethylcarbamoyl)cyclopropyl)isonicotinamide]
97.8% | 101% | 43.3 nM | Cc1cc(CNC(=O)C2(NC(=O)c3cc(C(C)(C)C)nc(C(C)(C)C)c3)CCCCC2)no1 [Compound 79, 2,6-di-tert-butyl-N-(1-((5-methylisoxazol-3-yl)methylcarbamoyl)cyclohexyl)isonicotinamide]
97.8% | 99% | 35.9 nM | COc1ccc(CNC(=O)C2(NC(=O)c3cc(C(C)(C)C)c(OC)c(C(C)(C)C)c3)CCCC2)cc1 [Compound 38, 3,5-di-tert-butyl-4-methoxy-N-(1-(4-methoxybenzylcarbamoyl)cyclopentyl)benzamide]
94.6% | 96.4% | 127 nM | Cc1cnc(CNC(=O)C2(NC(=O)c3cc(C(C)(C)C)c(O)c(C(C)(C)C)c3)CCCCC2)cn1 [Compound 5, 3,5-di-tert-butyl-4-hydroxy-N-(1-((5-methylpyrazin-2-yl)methylcarbamoyl)cyclohexyl)benzamide]
70.5% |  | 87.4 nM | CN(C)c1cccc(CNC(=O)C2(NC(=O)c3cc(C(C)(C)C)nc(C(C)(C)C)c3)CCOCC2)c1 [Compound 25, 2,6-di-tert-butyl-N-(4-(3-(dimethylamino)benzylcarbamoyl)tetrahydro-2H-pyran-4-yl)isonicotinamide]
96.9% | 99.8% | 34.1 nM | CC(C)(C)c1cc(C(=O)NC2(C(=O)NCc3nccs3)CCCCC2)cc(C(C)(C)C)c1O [Compound 13, 3,5-di-tert-butyl-4-hydroxy-N-(1-(thiazol-2-ylmethylcarbamoyl)cyclohexyl)benzamide]
102% | 104% | 6.04 nM | COc1c(C(C)(C)C)cc(C(=O)NC2(C(=O)NCc3nccs3)CCCCC2)cc1C(C)(C)C [Compound 87, 3,5-di-tert-butyl-4-methoxy-N-(1-(thiazol-2-ylmethylcarbamoyl)cyclohexyl)benzamide]
93.7% | 95.3% | 35.6 nM | CC(C)(C)c1cc(C(=O)NC2(C(=O)NCc3ccccn3)CCCCC2)cc(C(C)(C)C)c1 [Compound 47, 3,5-di-tert-butyl-N-(1-(pyridin-2-ylmethylcarbamoyl)cyclohexyl)benzamide]
87.7% | 93.2% | 26.7 nM | COc1c(C(C)(C)C)cc(C(=O)NC2(C(=O)NCc3cc(C)n(C)n3)CCCCC2)cc1C(C)(C)C [Compound 85, 3,5-di-tert-butyl-N-(1-((1,5-dimethyl-1H-pyrazol-3-yl)methylcarbamoyl)cyclohexyl)-4-methoxybenzamide]
